Data published in paper PMC8845381 (BMC Microbiology, 2022).
Converted amounts (≈) assume the structure as drawn. “And” between values parts separate entries of the source, which are not always exact repeats. Identical values can stand only once. Like-named read-outs stand apart in the source and are kept apart here. Marks after values point to notes of the source that are not given here. One block for each compound: values may come before it.

How the values were obtained:
[1] = tested on: L. major amastigotes in J774.A1 macrophages; test: Parasite load in macrophage (anti-amastigote activity); type: cell-based, Leishmania major; conditions: for Number of amastigotes: mean per macrophage
Method: For the assessment of the parasite load, 2 × 10^5 of J774.A1 macrophages cells were cultured in a 24-well microtiter plate containing a 13 mm-diameter coverslip per well, and supplemented RPMI medium supplemented with 10% FCS and 100 U/ml penicillin and 100 μg/mL streptomycin and incubated at 37 °C in CO2 5% for 24 h. Promastigotes of L. major at the stationary phase were seeded into each well (1:10) and incubated for 24 h and the non-internalized parasites were removed by aspirating the supernatant. […] The number of infected macrophages and the number of amastigotes per macrophage were determined by counting the number of parasites in 100 macrophages in a neubauer chamber.

human blood = type: cell-based; conditions: 30 min at 37 °C
Method: In vitro hemolytic activity was done by spectrophotometric method. In this study, the fresh human blood samples obtained from returned unused blood bags in the blood bank (Iranian Blood Transfusion Organization) were used. […] The mixture was incubated for 30 min at 37 °C and then centrifuged at 1500 rpm for 10 min. The free hemoglobin in the supernatant was analyzed by UV–Vis spectrophotometer at 540 nm. The PBS and distilled water (DW) were used as minimal and maximal hemolytic controls.

L929 cell line = test: Cytotoxicity assay (MTT); type: cell-based; conditions: for Cytotoxicity assay Percent (%): L929, 24 h
Method: L929 cell line was seeded into 96-well microtiter plates (Nunc, Roskilde, Denmark) in DMEM (100 μL) supplemented with 10% FBS and 1% penicillin–streptomycin solution. Cells then were incubated at 37 °C in a humidity of 95% and 5% CO2 for 24 h. […] After 24 h of incubation time, 10 μL of MTT solution was added to each well. After 3 h of incubation at 37 °C, the supernatant was removed and 100 μL of DMSO was added. Finally, the absorbance at 570 nm was measured by a microtiter plate reader (BioTek ELX800, Winooski, VT, USA) and the viability was calculated by the below formula [21]: Viability%=ODTest/ODControl×100

[2] = tested on: L. amazonensis promastigotes; parameters: method as in PMID 26517558; conditions: in vitro; cited from earlier work
L. major promastigotes [3] = test: In vitro assay: live and dead promastigotes counted after eosin staining; type: cell-based, Leishmania major (Iranian strain MRHO/IR/75/ER); conditions: for effectiveness (mortality rate of promastigotes) compared with Amphotericin B: P < 0.05
Method: L. major promastigotes, Iranian strain MRHO/IR/75/ER, were provided by the department of parasitology, Tehran University of Medical Sciences, Tehran, Iran and were cultivated in RPMI-1640 medium supplemented with 10% FBS and penicillin–streptomycin solution at 24 °C with frequent passages every three days.
The experiments were done separately for 12, 24, 48, and 72 h in a 96-well microtiter plate. At first, 100 μL RPMI-1640 medium containing 10^5 promastigotes (at log phase) was added to each well. […] Amphotericin B (20 mg/mL) as a positive control was considered in three wells, in a concentration of 12 μM. In another row, 100 µL of medium containing parasites with phosphate buffered saline (PBS) without the drug was added as the negative controls. The plate was incubated at 24 °C for 12, 24, 48, and 72 h.

[4] = Characterization by dynamic light scattering (size, PDI, zeta potential); type: physicochemical; conditions: DLS
Method: The homogenization followed by the probe ultra-sonication method was performed for preparing the nanoparticles. […] Then, the hot lipid phase was dispersed in the 1/3 aqueous solution containing 500 mg of hydrophilic surfactant (Tween 80), heated at the same temperature, homogenized by high-shear homogenizer at 13,000 rpm for 7 min (D-91126 Schwabach, Heidolph, Germany), and then sonicated by a probe sonicator (Bandelinsonopuls, 3100, Berlin, Germany) at power levels of 3.5 W for 5 min to form a coarse pre-emulsion. The mixture was then dispersed into 2/3 of an ice-cold surfactant solution preserved in an ice bath. The final mixture was sonicated again at power levels of 0.6 W for 10 min while dipped in the ice bath. This cooling phase encouraged the formation of lipid nanoparticles.

Candida albicans = conditions: cited from earlier work
L. major promastigotes [5] = test: Apoptosis assay (Annexin V-FITC/PI flow cytometry); type: cell-based; conditions: Leishmania major, 24 h, read-out: viability rates of cells (flow cytometry)
Method: They were incubated at 24 °C for 24 h. Then cells were washed twice with PBS and 1 × 10^5 cells were re-suspended in 100 μL binding buffer and incubated with 5 μL of Annexin V-FITC and propidium iodide (PI) as a counterstain for 15 min at room temperature in darkness, according to the manufacturer's instructions (BD Biosciences, San Diego, CA, USA). Finally, the percent of apoptotic and necrotic cells was evaluated by flow cytometry (Becton Dickinson) and data were analyzed using Flowjo software (version 7).

[6] = tested on: L. major intracellular amastigotes; conditions: 10, 50, and 100 µg/mL; cited from earlier work
L. major = conditions: in vitro; cited from earlier work
Leishmania major = test: In vivo assay: lesion size in infected BALB/c mice, topical treatment; conditions: after 28 days
Method: This study was performed in accordance with ARRIVE guidelines (https://arriveguidelines.org). Female BALB/c mice (6–7 weeks old) purchased from Razi Rad Industries were used for experimentation and kept in standard boxes under controlled light and temperature conditions. Overall, 1.6 × 10^6 promastigotes, in the stationary phase, were injected subcutaneously in the base of the tail of mice. The mice were divided into 10 groups and five mice were allocated in each group. […] After three weeks, treatment was started when local lesions were apparent. […] Topical treatment was used on each mouse every 28 continuous days. The diameter of lesions was measured weekly before and after treatment by dial micrometer (Starrett Dial indicator, model 25A, USA) and compared with that of untreated lesions. The ulcer size was determined according to the following formula (a: Length and b: width): Lesionsize=a+b/2

[7] = tested on: nitric oxide (NO) production by infected murine peritoneal macrophages; test: Indirect measurement of nitric oxide production (Griess reaction); type: cell-based
Method: NO levels were evaluated using Griess reaction and compared to the untreated macrophages. In a 96-well microtiter plate, 2 × 10^5 murine peritoneal macrophages were cultured at 37 °C in 5% CO2 for 4 h to allow cell adhesion. 100 µL of new medium containing promastigotes in stationary phase (10 promastigotes per macrophage) was added. […] After the incubation times, the level of NO was analyzed using cell culture supernatant by an ELISA plate reader at 550 nm.

L. amazonensis = conditions: in vitro; cited from earlier work
[8] = 20 µg/mL, 0 h (Before treatment)
[9] = 50 µg/mL, 0 h (Before treatment)
[10] = 100 µg/mL, 0 h (Before treatment)
[11] = 200 µg/mL, 0 h (Before treatment)
[12] = 400 µg/mL, 0 h (Before treatment)

Compound: C[C@@H]1[C@H](O)[C@@H](C)/C=C/C=C/C=C/C=C/C=C/C=C/C=C/[C@H](O[C@@H]2O[C@H](C)[C@@H](O)[C@H](N)[C@@H]2O)C[C@@H]2O[C@](O)(C[C@@H](O)C[C@@H](O)[C@H](O)CC[C@@H](O)C[C@@H](O)CC(=O)O[C@H]1C)C[C@H](O)[C@H]2C(=O)O [Amphotericin B, reference compound]
- MQ infectivity (%) [1, 8]: 73.4%
- Number of amastigotes [1, 8]: 15.7
- MQ infectivity (%) ([1]; 20 µg/mL, 24 h): 34.5^* %
- Number of amastigotes ([1]; 20 µg/mL, 24 h): 4.3^*
- MQ infectivity (%) ([1]; 20 µg/mL, 48 h): 42.7^* %
- Number of amastigotes ([1]; 20 µg/mL, 48 h): 0.4^**
- Hemolytic assay Percent (%) (human blood; concentration not given): 21.6% and 21.6 ± 5.3%
- Cytotoxicity assay Percent (%) (L929 cell line; concentration not given): 19.5 ± 0.6%

Compound: Oc1cc(O)cc(/C=C/c2ccc(O)cc2O)c1 [oxyresveratrol]
- IC50 [2]: 65 µg/mL (≈ 266 µM)

- IC50 (L. major promastigotes [3]; Leishmania major, promastigotes of L. major after 12 h): 16.2 µg/mL (≈ 71.1 µM)
- average size [4]: 432.7 ± 26 nm
Compound: Oc1ccc(/C=C/c2cc(O)cc(O)c2)cc1 [Resveratrol, 3,5,4' -trihydroxy-trans-stilbene]
- MQ infectivity (%) [1, 9]: 76.4%
- Number of amastigotes [1, 9]: 17.6
- MQ infectivity (%) ([1]; 50 µg/mL, 24 h): 68.4^* %
- Number of amastigotes ([1]; 50 µg/mL, 24 h): 12.5
- MQ infectivity (%) ([1]; 50 µg/mL, 48 h): 55.3%
- Number of amastigotes ([1]; 50 µg/mL, 48 h): 9.8^*
- MQ infectivity (%) [1, 10]: 81.0%
- Number of amastigotes [1, 10]: 18.3
- MQ infectivity (%) ([1]; 100 µg/mL, 24 h): 56.2^* %
- Number of amastigotes ([1]; 100 µg/mL, 24 h): 12.1
- MQ infectivity (%) ([1]; 100 µg/mL, 48 h): 41.9^* %
- Number of amastigotes ([1]; 100 µg/mL, 48 h): 9.5^*
- MQ infectivity (%) [1, 11]: 78.3%
- Number of amastigotes [1, 11]: 18.0
- MQ infectivity (%) ([1]; 200 µg/mL, 24 h): 42.6^* %
- Number of amastigotes ([1]; 200 µg/mL, 24 h): 6.7^*
- MQ infectivity (%) ([1]; 200 µg/mL, 48 h): 35.5^* %
- Number of amastigotes ([1]; 200 µg/mL, 48 h): 2.4^*
- MQ infectivity (%) [1, 12]: 79.6%
- Number of amastigotes [1, 12]: 16.2
- MQ infectivity (%) ([1]; 400 µg/mL, 24 h): 31.4^* %
- Number of amastigotes ([1]; 400 µg/mL, 24 h): 3.3^*
- MQ infectivity (%) ([1]; 400 µg/mL, 48 h): 25.8^* %
- Number of amastigotes ([1]; 400 µg/mL, 48 h): 0.5^**
- promastigotes eliminated (L. major promastigotes [3]; 100 µg/mL, 48 h, 'In this study' (sentence follows description of ref 17)): 100%
- effectiveness (mortality rate of promastigotes) compared with Amphotericin B (L. major promastigotes [3]; after 12 h, 50, 100, 200, and 400 µg/mL): significantly more effective than Amphotericin B
- effectiveness (mortality rate of promastigotes) compared with Amphotericin B (L. major promastigotes [3]; after 24 h, all concentrations): significantly more effective than Amphotericin B
- anti-leishmanial activity compared with positive control (Amphotericin B) (L. major promastigotes [3]; after 48 h, resveratrol 50-400 µg/mL, RNE 100-400 µg/mL, not significant (P > 0.05)): better anti-leishmanial activity than positive control
- IC50 (Candida albicans): 10 to 20 µg/mL
- Hemolytic assay Percent (%) (human blood; 100 µg/mL): 17.5 ± 2.4%
- Hemolytic assay Percent (%) (human blood; 200 µg/mL): 19.6 ± 3.7%
- Hemolytic assay Percent (%) (human blood; 400 µg/mL (highest concentration)): 25.2 ± 5.3%
- viability at 200 µg/mL (L. major promastigotes [5]; 200 µg/mL): 87.9%
- viability at 400 µg/mL (L. major promastigotes [5]; 400 µg/mL): 71.4%
- effect on intracellular amastigote [6]: resistant
- cytotoxicity against the L929 cell line (in words) (L929 cell line): no cytotoxicity
- Cytotoxicity assay Percent (%) (L929 cell line; 100 µg/mL): 8.4 ± 1.6%
- Cytotoxicity assay Percent (%) (L929 cell line; 200 µg/mL): 14.8 ± 3.0%
- Cytotoxicity assay Percent (%) (L929 cell line; 400 µg/mL): 18.7 ± 4.6%
- IC50 (L. major): 65.5 µM
- mean lesion size (Leishmania major; 15 mg/kg BW, topical, PBS control 7.5 and 7.2 mm): 0.0 mm
- anti-leishmanial activity (lesion size) compared with Amphotericin B (Leishmania major; all concentrations, not significant (P > 0.05)): better anti-leishmanial activity
- NO production by macrophages compared with Amphotericin B ([7]; resveratrol 50 and 100 µg/mL, RNE 50, 100, 200, and 400 µg/mL, P < 0.05): decreased the NO production even more than Amphotericin B
- production of NO compared with the control group ([7]; resveratrol ≥ 200 µg/mL, 24 h, control PBS 7.23 μM, DMSO 6.73 μM): decreased the production of NO
- IC50 (L. amazonensis): 27 µM
